# Results taken from BindingDB's records for doi:10.1016/0922-4106(95)90037-3 (Universit&Eacute, 1995).
# Values joined by “and” are separate entries in the source; they are usually repeats but may differ in a detail not shown here. Identical values can stand only once. Non-standard residues stand in square brackets, D forms with d. Residues, ends and D or L forms follow the SMILES beside them. ξ: configuration not given here. Ile(3ξ) = CCC(C)[C@H](N)C(=O)O
# Molecular target: T1, Pituitary adenylate cyclase-activating polypeptide (Rattus norvegicus, UniProt P13589)
# T1 sequence (P13589 whole entry): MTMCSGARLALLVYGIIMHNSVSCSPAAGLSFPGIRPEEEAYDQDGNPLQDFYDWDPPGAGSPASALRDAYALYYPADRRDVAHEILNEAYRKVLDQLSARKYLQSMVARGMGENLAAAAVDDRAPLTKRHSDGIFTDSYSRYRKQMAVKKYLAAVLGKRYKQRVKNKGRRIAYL
structure (smiles),measurement,value
CSCC[C@H](NC(=O)[C@H](CCC(N)=O)NC(=O)[C@H](CCCCN)NC(=O)[C@H](CCCNC(=N)N)NC(=O)[C@H](Cc1ccc(O)cc1)NC(=O)[C@H](CCCNC(=N)N)NC(=O)[C@H](CO)NC(=O)[C@H](Cc1ccc(O)cc1)NC(=O)[C@H](CO)NC(=O)[C@H](CC(=O)O)NC(=O)[C@@H](NC(=O)[C@@H](N)Cc1ccccc1)[C@@H](C)O)C(=O)N[C@@H](C)C(=O)N[C@H](C(=O)N[C@@H](CCCCN)C(=O)N[C@@H](CCCCN)C(=O)N[C@@H](Cc1ccc(O)cc1)C(=O)N[C@@H](CC(C)C)C(=O)N[C@@H](C)C(=O)N[C@@H](C)C(=O)N[C@H](C(=O)N[C@@H](CC(C)C)C(=O)NCC(=O)N[C@@H](CCCCN)C(=O)N[C@@H](CCCNC(=N)N)C(=O)N[C@@H](Cc1ccc(O)cc1)C(=O)N[C@@H](CCCCN)C(=O)N[C@@H](CCC(N)=O)C(=O)N[C@@H](CCCNC(=N)N)C(=O)N[C@H](C(=O)N[C@@H](CCCCN)C(=O)N[C@@H](CC(N)=O)C(=O)N[C@@H](CCCCN)C(N)=O)C(C)C)C(C)C)C(C)C,Ki,8 nM and 10 nM
CC[C@H](C)[C@H](NC(=O)[C@H](CO)NC(=O)[C@H](CC(N)=O)NC(=O)[C@H](CC(C)C)NC(=O)[C@H](Cc1ccc(O)cc1)NC(=O)[C@H](CCCCN)NC(=O)[C@H](CCCCN)NC(=O)[C@@H](NC(=O)[C@H](C)NC(=O)[C@H](CCSC)NC(=O)[C@H](CCC(N)=O)NC(=O)[C@H](CCCCN)NC(=O)[C@H](CCCN=C(N)N)NC(=O)[C@H](CC(C)C)NC(=O)[C@H](CCCN=C(N)N)NC(=O)[C@@H](NC(=O)[C@H](Cc1ccc(O)cc1)NC(=O)[C@H](CC(N)=O)NC(=O)[C@H](CC(=O)O)NC(=O)[C@@H](NC(=O)[C@H](Cc1ccccc1)NC(=O)[C@@H](NC(=O)[C@H](C)NC(=O)[C@H](CC(=O)O)NC(=O)[C@H](CO)NC(=O)[C@@H](N)Cc1cnc[nH]1)C(C)C)[C@@H](C)O)[C@@H](C)O)C(C)C)C(=O)N[C@@H](CC(C)C)C(=O)N[C@@H](CC(N)=O)C(=O)O [CAS_37221-79-7],Ki,80 nM
CC[C@H](C)[C@H](NC(=O)CNC(=O)[C@H](CCC(=O)O)NC(=O)[C@H](CO)NC(=O)[C@@H](N)Cc1cnc[nH]1)C(=O)N[C@@H](Cc1ccccc1)C(=O)N[C@H](C(=O)N[C@@H](CC(=O)O)C(=O)N[C@@H](CO)C(=O)N[C@@H](Cc1ccc(O)cc1)C(=O)N[C@@H](CO)C(=O)N[C@@H](CCCNC(=N)N)C(=O)N[C@@H](Cc1ccc(O)cc1)C(=O)N[C@@H](CCCNC(=N)N)C(=O)N[C@@H](CCCCN)C(=O)N[C@@H](CCC(N)=O)C(=O)N[C@@H](CCSC)C(=O)N[C@@H](C)C(=O)N[C@H](C(=O)N[C@@H](CCCCN)C(=O)N[C@@H](CCCCN)C(=O)N[C@@H](Cc1ccc(O)cc1)C(=O)N[C@@H](CC(C)C)C(=O)N[C@@H](C)C(=O)N[C@@H](C)C(=O)N[C@H](C(=O)N[C@@H](CC(C)C)C(N)=O)C(C)C)C(C)C)[C@@H](C)O [PACAP(1-27)],Ki,0.08 nM
[C][C][C]([C])[C@H]([N]C(=O)[C][N]C(=O)[C@H]([C][C]C([O])=O)[N]C(=O)[C@@H]([N])[C][O])C(=O)[N][C@@H]([C]c1ccccc1)C(=O)[N][C@H](C(=O)[N][C@@H]([C]C([O])=O)C(=O)[N][C@@H]([C][O])C(=O)[N][C@@H]([C]c1ccc([O])cc1)C(=O)[N][C@@H]([C][O])C(=O)[N][C@@H]([C][C][C]N=C([N])[N])C(=O)[N][C@@H]([C]c1ccc([O])cc1)C(=O)[N][C@@H]([C][C][C]N=C([N])[N])C(=O)[N][C@@H]([C][C][C][C][N])C(=O)[N][C@@H]([C][C]C([N])=O)C(=O)[N][C@@H]([C][C]S[C])C(=O)[N][C@@H]([C])C(=O)[N][C@@H]([C]([C])[C])C(=O)[N][C@@H]([C][C][C][C][N])C(=O)[N][C@@H]([C][C][C][C][N])C(=O)[N][C@@H]([C]c1ccc([O])cc1)C(=O)[N][C@@H]([C][C]([C])[C])C(=O)[N][C@@H]([C])C(=O)[N][C@@H]([C])C(=O)[N][C@@H]([C]([C])[C])C(=O)[N][C@@H]([C][C]([C])[C])C([N])=O)[C@@H]([C])[O] [PACAP(2-27)],Ki,5 nM
CCC(C)[C@H](NC(=O)CNC(=O)[C@H](CC(=O)O)NC(=O)[C@@H](N)CO)C(=O)N[C@@H](Cc1ccccc1)C(=O)N[C@H](C(=O)N[C@@H](CC(=O)O)C(=O)N[C@@H](CO)C(=O)N[C@@H](Cc1ccc(O)cc1)C(=O)N[C@@H](CO)C(=O)N[C@@H](CCCN=C(N)N)C(=O)N[C@@H](Cc1ccc(O)cc1)C(=O)N[C@@H](CCCN=C(N)N)C(=O)N[C@@H](CCCCN)C(=O)N[C@@H](CCC(N)=O)C(=O)N[C@@H](CCSC)C(=O)N[C@@H](C)C(=O)N[C@H](C(=O)N[C@@H](CCCCN)C(=O)N[C@@H](CCCCN)C(=O)N[C@@H](Cc1ccc(O)cc1)C(=O)N[C@@H](CC(C)C)C(=O)N[C@@H](C)C(=O)N[C@@H](C)C(=O)N[C@H](C(=O)N[C@@H](CC(C)C)C(=O)NCC(=O)N[C@@H](CCCCN)C(=O)N[C@@H](CCCN=C(N)N)C(=O)N[C@@H](Cc1ccc(O)cc1)C(=O)N[C@@H](CCCCN)C(=O)N[C@@H](CCC(N)=O)C(=O)N[C@@H](CCCN=C(N)N)C(=O)N[C@H](C(=O)N[C@@H](CCCCN)C(=O)N[C@@H](CC(N)=O)C(=O)N[C@@H](CCCCN)C(N)=O)C(C)C)C(C)C)C(C)C)[C@@H](C)O (stereo partly drawn) [PACAP(2-38)] (H-SDG[Ile(3ξ)]FTDSYSRYRKQMAVKKYLAAVLGKRYKQRVKNK-NH2),Ki,5 nM and 8 nM
CCC(C)[C@H](NC(=O)CNC(=O)[C@@H](N)CC(=O)O)C(=O)N[C@@H](Cc1ccccc1)C(=O)N[C@H](C(=O)N[C@@H](CC(=O)O)C(=O)N[C@@H](CO)C(=O)N[C@@H](Cc1ccc(O)cc1)C(=O)N[C@@H](CO)C(=O)N[C@@H](CCCN=C(N)N)C(=O)N[C@@H](Cc1ccc(O)cc1)C(=O)N[C@@H](CCCN=C(N)N)C(=O)N[C@@H](CCCCN)C(=O)N[C@@H](CCC(N)=O)C(=O)N[C@@H](CCSC)C(=O)N[C@@H](C)C(=O)N[C@H](C(=O)N[C@@H](CCCCN)C(=O)N[C@@H](CCCCN)C(=O)N[C@@H](Cc1ccc(O)cc1)C(=O)N[C@@H](CC(C)C)C(=O)N[C@@H](C)C(=O)N[C@@H](C)C(=O)N[C@H](C(=O)N[C@@H](CC(C)C)C(N)=O)C(C)C)C(C)C)[C@@H](C)O (stereo partly drawn) [PACAP(3-27)] (H-DG[Ile(3ξ)]FTDSYSRYRKQMAVKKYLAAVL-NH2),Ki,500 nM and 400 nM
CCC(C)[C@H](NC(=O)CNC(=O)[C@@H](N)CC(=O)O)C(=O)N[C@@H](Cc1ccccc1)C(=O)N[C@H](C(=O)N[C@@H](CC(=O)O)C(=O)N[C@@H](CO)C(=O)N[C@@H](Cc1ccc(O)cc1)C(=O)N[C@@H](CO)C(=O)N[C@@H](CCCN=C(N)N)C(=O)N[C@@H](Cc1ccc(O)cc1)C(=O)N[C@@H](CCCN=C(N)N)C(=O)N[C@@H](CCCCN)C(=O)N[C@@H](CCC(N)=O)C(=O)N[C@@H](CCSC)C(=O)N[C@@H](C)C(=O)N[C@H](C(=O)N[C@@H](CCCCN)C(=O)N[C@@H](CCCCN)C(=O)N[C@@H](Cc1ccc(O)cc1)C(=O)N[C@@H](CC(C)C)C(=O)N[C@@H](C)C(=O)N[C@@H](C)C(=O)N[C@H](C(=O)N[C@@H](CC(C)C)C(=O)NCC(=O)N[C@@H](CCCCN)C(=O)N[C@@H](CCCN=C(N)N)C(=O)N[C@@H](Cc1ccc(O)cc1)C(=O)N[C@@H](CCCCN)C(=O)N[C@@H](CCC(N)=O)C(=O)N[C@@H](CCCN=C(N)N)C(=O)N[C@H](C(=O)N[C@@H](CCCCN)C(=O)N[C@@H](CC(N)=O)C(=O)N[C@@H](CCCCN)C(N)=O)C(C)C)C(C)C)C(C)C)[C@@H](C)O (stereo partly drawn) [PACAP(3-38)] (H-DG[Ile(3ξ)]FTDSYSRYRKQMAVKKYLAAVLGKRYKQRVKNK-NH2),Ki,300 nM
CC[C@H](C)[C@H](NC(=O)CNC(=O)[C@H](CC(=O)O)NC(=O)[C@H](CO)NC(=O)[C@@H](N)Cc1cnc[nH]1)C(=O)N[C@@H](Cc1ccccc1)C(=O)N[C@H](C(=O)N[C@@H](CC(=O)O)C(=O)N[C@@H](CO)C(=O)N[C@@H](Cc1ccc(O)cc1)C(=O)N[C@@H](CO)C(=O)N[C@@H](CCCNC(=N)N)C(=O)N[C@@H](Cc1ccc(O)cc1)C(=O)N[C@@H](CCCNC(=N)N)C(=O)N[C@@H](CCCCN)C(=O)N[C@@H](CCC(N)=O)C(=O)N[C@@H](CCSC)C(=O)N[C@@H](C)C(=O)N[C@H](C(=O)N[C@@H](CCCCN)C(=O)N[C@@H](CCCCN)C(=O)N[C@@H](Cc1ccc(O)cc1)C(=O)N[C@@H](CC(C)C)C(=O)N[C@@H](C)C(=O)N[C@@H](C)C(=O)N[C@H](C(=O)N[C@@H](CC(C)C)C(=O)NCC(=O)N[C@@H](CCCCN)C(=O)N[C@@H](CCCNC(=N)N)C(=O)N[C@@H](Cc1ccc(O)cc1)C(=O)N[C@@H](CCCCN)C(=O)N[C@@H](CCC(N)=O)C(=O)N[C@@H](CCCNC(=N)N)C(=O)N[C@H](C(=O)N[C@@H](CCCCN)C(=O)N[C@@H](CC(N)=O)C(=O)N[C@@H](CCCCN)C(N)=O)C(C)C)C(C)C)C(C)C)[C@@H](C)O [PACAP],Ki,0.1 nM
